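Cultured in 96-well plates, cells were exposed to test compound for 48 hours across five concentrations. GI50 is the concentration that inhibits growth by half.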 Active and inactive are the calls of the source. No stated cut-off is given here; in the data, active = GI50 up to about 1.1 µM and inactive = higher.
Tests used:
Assay in all cases: DTP human tumour cell line panel, 48 h
UACC-257 = system: UACC-257
T47D = system: T47D
RXF 393 = system: RXF 393
M14 = system: M14
A498 = system: A498
SNB-75 = system: SNB-75
BT-549 = system: BT-549
HCC 2998 = system: HCC 2998
NCI-H23 = system: NCI-H23
SW-620 = system: SW-620
786-0 = system: 786-0
NCI-H522 = system: NCI-H522
SF-295 = system: SF-295
SF-268 = system: SF-268
MOLT-4 = system: MOLT-4
ACHN = system: ACHN
DU-145 = system: DU-145
SK-MEL-2 = system: SK-MEL-2
MDA-MB-435 = system: MDA-MB-435

Row | SMILES | GI50 (UACC-257) | GI50 (T47D) | GI50 (RXF 393) | GI50 (M14) | GI50 (A498) | GI50 (SNB-75) | GI50 (BT-549) | GI50 (HCC 2998) | GI50 (NCI-H23) | GI50 (SW-620) | GI50 (786-0) | GI50 (NCI-H522) | GI50 (SF-295) | GI50 (SF-268) | GI50 (MOLT-4) | GI50 (ACHN) | GI50 (DU-145) | GI50 (SK-MEL-2) | GI50 (MDA-MB-435)
1 | C[C@@H]1C[C@H](O)[C@]2(O)O[C@@H]3C[C@@]4(C=O)[C@@H](CC=C5[C@@H]4CC[C@]4(C)[C@@H](C6=CC(=O)OC6)CC[C@]54O)C[C@H]3O[C@@H]2O1 | 0.0702 µM (active) | 0.0218 µM (active) | < 0.0196 µM (active) | 0.0574 µM (active) | < 0.01 µM (active) | 0.112 µM (active) | < 0.015 µM (active) | 0.0678 µM (active) | 0.0118 µM (active) | < 0.0227 µM (active) | 0.0124 µM (active) | < 0.01 µM (active) | < 0.0191 µM (active) | 0.0103 µM (active) | < 0.01 µM (active) | < 0.01 µM (active) | < 0.0163 µM (active) | 0.098 µM (active) | 0.0332 µM (active)
2 | COC(=O)C1(Cc2cccc(C)c2)Cc2c(C)cccc2C1=O (stereo not given) | 82.8 µM (inactive) | 28.4 µM (inactive) | 29.4 µM (inactive) | 34.4 µM (inactive) | 34 µM (inactive) | 43.3 µM (inactive) | 56.1 µM (inactive) | 55.5 µM (inactive) | 37.5 µM (inactive) | 31.4 µM (inactive) | 93.8 µM (inactive) | 22.6 µM (inactive) | 38.2 µM (inactive) | 58.5 µM (inactive) | 36.8 µM (inactive) | > 100 µM (inactive) | > 100 µM (inactive) | 32.7 µM (inactive) | 14.1 µM (inactive)
3 | C#C/C=C\CCCCCCCCCCCCCC/C=C\CCCCC#CC(O)C#CCCCC/C=C\CCCCCC/C=C/C(O)C#C (stereo not given) | 27 µM (inactive) | 7.21 µM (inactive) | 15.8 µM (inactive) | 12.9 µM (inactive) | 30.1 µM (inactive) | 42.7 µM (inactive) | > 71.9 µM (inactive) | 13.1 µM (inactive) | 9.64 µM (inactive) | 7.5 µM (inactive) | 11.8 µM (inactive) | 5.7 µM (inactive) | 17.7 µM (inactive) | 17.2 µM (inactive) | 10.1 µM (inactive) | 20.8 µM (inactive) | 30.9 µM (inactive) | 12.9 µM (inactive) | 4.58 µM (inactive)
4 | CCCc1cn2c(/C=N/N=C(N)N)c(-c3c(OC)ccc(OC)c3[N+](=O)[O-])nc2s1 | 7.08 µM (inactive) | 3.7 µM (inactive) | 9.55 µM (inactive) | 7.08 µM (inactive) | 21.2 µM (inactive) | 16.3 µM (inactive) | 10.9 µM (inactive) | 2.57 µM (inactive) | 10.9 µM (inactive) | 7.78 µM (inactive) | 9.89 µM (inactive) | 8.79 µM (inactive) | 14.1 µM (inactive) | 11.4 µM (inactive) | 1.94 µM (inactive) | 18 µM (inactive) | 16 µM (inactive) | 16.7 µM (inactive) | 5.42 µM (inactive)
5 | COc1ccc(/[N+]([O-])=C/c2ccc(OC(=S)S)c(OC)c2)cc1 | > 100 µM (inactive) | 28.6 µM (inactive) | 19.6 µM (inactive) | 46.8 µM (inactive) | > 100 µM (inactive) | 16.3 µM (inactive) | 26.2 µM (inactive) | > 100 µM (inactive) | 29.6 µM (inactive) | 30.9 µM (inactive) | 50.6 µM (inactive) | 25.8 µM (inactive) | 28.6 µM (inactive) | 42.5 µM (inactive) | 33 µM (inactive) | 75 µM (inactive) | 41.6 µM (inactive) | 35.5 µM (inactive) | 9.46 µM (inactive)
